Assay in all cases: growth of human tumour cells (NCI), 48 h
In assay [1] the test system is COLO 205 colon.
Assay [2] has as its system LOX IMVI melanoma.
Assay [3] concerns NCI-H226 lung.
Assay [4] deals with OVCAR-8 ovarian.
Assay [5] has as its system SK-OV-3 ovarian.
The subject of assay [6] is SNB-75 CNS.
Assay [7] deals with HL-60(TB) leukemia.
For assay [8], the system named is SF-539 CNS.
Assay [9] relates to SK-MEL-5 melanoma.

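Assay format: 96-well plates, 48-hour exposure. Abbreviation: GI50, concentration required for 50% inhibition of growth. The concentration for full growth arrest is given as TGI.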

As to `O=c1ncccn1C1OC(CO)C(O)C1O` (stereo not drawn), the TGI in assay [1], in assay [2], in assay [3], in assay [4], in [5] and in assay [6] was greater than 100 µM in each case.
For `c1ccc2c(c1)oc1ccc3nsnc3c12`, the TGI in assay [1] was greater than 100 µM; in assay [7], greater than 100 µM; in [2] it was greater than 10 µM; in [3] it was greater than 100 µM; in assay [8], greater than 100 µM; in assay [9] it was greater than 100 µM. The TGI in assay [5] and in assay [6] was greater than 100 µM each time.
For `O=C(O)CCNCCCCNCCC(=O)O`, the TGI in assay [1], in assay [7], in assay [2], in assay [3], in [4] and in assay [8] was greater than 100 µM throughout. Besides, the TGI in [9], in assay [5] and in assay [6] was greater than 100 µM each time.
Regarding `C=CCC1=C(C)C[C@@H]2CCC(=O)C=C12`, the TGI in [1], in [7], in [2], in assay [4], in assay [8] and in assay [9] was greater than 100 µM in each case. The TGI in assay [5] and in assay [6] was greater than 100 µM in each case.
Regarding `CC(C)CCCC(C)[C@H]1CCC2[C@@H]3CCC4Nc5c(cnn5-c5ccccc5)C[C@]4(C)C3CC[C@@]21C` (stereo partly drawn), the TGI in assay [1] was 42 µM; in assay [7], greater than 100 µM; in [3] it was greater than 100 µM; in [4], greater than 100 µM; in assay [8] it was greater than 100 µM; in [9], greater than 100 µM. For the same molecule, the figures for the TGI in [5] and in assay [6] were greater than 100 µM and 25.7 µM, respectively.
In the case of `C=CCO/N=C(\OC(=O)c1ccc([N+](=O)[O-])cc1)c1ccccc1`, the TGI in [1], in [3], in [4], in assay [8], in assay [9] and in [5] was greater than 100 µM in each case. Moreover, in assay [6], the TGI is greater than 100 µM.
On to `C[Si](C)(C)/C=C\CCO`, for which the TGI in [1], in [7], in assay [2], in assay [4], in [8] and in [9] was greater than 100 µM throughout. For the same molecule, the TGI in assay [5] and in [6] was greater than 100 µM each time.
Regarding `O=S(=O)(NCn1ccc2ccccc21)c1ccccc1`, the TGI in [1] is greater than 100 µM; in assay [7], 41 µM; in assay [2], greater than 100 µM; in assay [3], greater than 100 µM; in assay [4], greater than 100 µM; in assay [8], greater than 100 µM. The TGI in assay [9], in assay [5] and in [6] was greater than 100 µM each time.
`COc1ncnc(S(=O)(=O)c2ccc(N=C3C(=O)N(CN4CCN(c5cc6c(cc5F)c(=O)c(C(=O)O)cn6C5CC5)CC4)c4ccc(Cl)cc43)cc2)c1OC`: the GI50 is greater than 50 µM in assay [1]; 26.8 µM in assay [7]; 23.8 µM in [2]; 38.9 µM in [3]; 32.9 µM in [4]; greater than 50 µM in assay [8]. In addition, in assay [9], the GI50 was 19.7 µM. Moreover, the TGI in assay [1], in assay [7], in assay [2], in assay [3], in assay [4] and in [8] was greater than 50 µM throughout. Further, in assay [9], the TGI is greater than 50 µM.
As to `Cc1ccc(S(=O)(=O)c2ccccc2[N+](=O)[O-])cc1`, the TGI in assay [7], in [3], in assay [4], in assay [8], in [9] and in [5] was greater than 100 µM throughout. The same molecule had a TGI in assay [6] greater than 100 µM.
As for `Cc1cc(N(CCC#N)CCC#N)ccc1N=Nc1ccc(Br)cc1`, the TGI is greater than 100 µM in assay [1]; greater than 100 µM in assay [7]; greater than 47.1 µM in assay [2]; greater than 46.5 µM in assay [3]; greater than 96.1 µM in assay [4]; greater than 51.9 µM in assay [8]. Besides, the TGI in assay [9] amounted to 27.8 µM; in assay [5], 11.7 µM.
Consider `COC(=O)CC(NC(=O)OCc1ccccc1)C(C(=O)OCc1ccccc1)C(C)(OC)OC` (stereo not drawn), for which the TGI is 34.1 µM in [1]; 90.9 µM in assay [7]; 52.7 µM in [2]; 97.5 µM in assay [3]; greater than 100 µM in [4]; greater than 100 µM in assay [8]. The results for the TGI in assay [9] and in [6] were 26.7 µM and 64 µM, respectively.
As to `CC(=O)[O-].[Mn+3].[O-]c1ccccc1C=NCCNCCN=Cc1ccccc1[O-]`, the GI50 in [7], in assay [2], in assay [3], in [4], in assay [8] and in assay [9] was greater than 100 µM each time. Also, the GI50 in [5] and in [6] was greater than 100 µM each time. Also, the TGI in assay [7], in assay [2], in assay [3], in [4], in assay [8] and in [9] was greater than 100 µM each time. The TGI in [5] and in assay [6] was greater than 100 µM each time.
As to `COC(=O)c1c2c(cc3c1CC1(Cc4cc5c(c(C(C)=O)c4C1)CCC5)C3)CCC2` (stereo not drawn), the TGI is greater than 100 µM in assay [1]; 86.4 µM in [7]; greater than 100 µM in [2]; greater than 100 µM in assay [4]; greater than 100 µM in [8]; greater than 100 µM in [9]. The same molecule registered a TGI in assay [6] of 74.2 µM.

(Values after PubChem BioAssay (NCI).)
